Reference: publication PMC9128166 (Cancer Science, 2022)
“And” between values parts separate entries of the source, which are not always exact repeats. Equal entries are not always repeated.

Experiment: Treatment-emergent adverse events
Assay type: in vivo, Japanese patients
[1] = Any TEAE, QD dosing period (n = 17)
[2] = Any TEAE, QW dosing period (n = 12)
[3] = Grade ≥3 TEAE, QD dosing period (n = 17)
[4] = Grade ≥3 TEAE, QW dosing period (n = 12)

For `CCOc1c([C@H](C)n2nc(C)c3c(N)ncnc32)cc(Cl)c(F)c1[C@@H]1CNC(=O)C1` [parsaclisib], the “Serious TEAE of pyrexia” value (2 patients) was 11.8%, the “rash (AESI), severity” value (3 patients) was 2 patients with grade 1 and 1 patient with grade 2 and the “nausea (TEAE)” value (4 of 17 patients, total) was 23.5%. For the same compound, the “pyrexia (TEAE)” value (4 of 17 patients, total) was 23.5%, the “Serious TEAEs” value (5 patients) was 29.4% and the “TEAEs leading to dose reduction” value (5 patients) was 29.4%. For the same compound, the “decreased neutrophil count leading to dose interruption” value (5 patients) was 29.4%, the “constipation (TEAE)” value (6 of 17 patients, total) was 35.3% and the “Adverse events of special interest” value (7 patients) was 41.2%. For the same compound, the “TEAEs of grade 3 or higher” value (11 patients) was 64.7%, the Constipation [1] was 4 (23.5) n (%) and the Cough [1] was 2 (11.8) n (%). For the same compound, the Cystitis [1] was 1 (5.9) n (%), the Diarrhea [1] was 0 (0.0) n (%) and the Drug eruption [1] was 3 (17.6) n (%). For the same compound, the Dry eye [1] was 0 (0.0) n (%), the Dry skin [1] was 2 (11.8) n (%) and the Fall [1] was 2 (11.8) n (%). The Gastritis [1] was 2 (11.8) n (%), the Headache [1] was 2 (11.8) n (%) and the Hyperkalemia [1] was 0 (0.0) n (%). For the same compound, the Hypoalbuminemia [1] was 2 (11.8) n (%), the Insomnia [1] was 0 (0.0) n (%) and the Myalgia [1] was 1 (5.9) n (%). For the same compound, the Nasopharyngitis [1] was 0 (0.0) n (%), the Nausea [1] was 2 (11.8) n (%) and the Pyrexia [1] was 3 (17.6) n (%). The Rash [1] was 1 (5.9) n (%), the Stomatitis [1] was 2 (11.8) n (%) and the “Upper respiratory tract infection” value [1] was 2 (11.8) n (%). The Constipation [2] was 2 (16.7) n (%), the Cough [2] was 0 (0.0) n (%) and the Cystitis [2] was 1 (8.3) n (%). For the same compound, the Diarrhea [2] was 3 (25.0) n (%), the Drug eruption [2] was 0 (0.0) n (%) and the Dry eye [2] was 2 (16.7) n (%). For the same compound, the Dry skin [2] was 0 (0.0) n (%), the Fall [2] was 0 (0.0) n (%) and the Gastritis [2] was 0 (0.0) n (%). The Headache [2] was 1 (8.3) n (%), the Hyperkalemia [2] was 2 (16.7) n (%) and the Hypoalbuminemia [2] was 0 (0.0) n (%). The Insomnia [2] was 3 (25.0) n (%), the Myalgia [2] was 1 (8.3) n (%) and the Nasopharyngitis [2] was 3 (25.0) n (%). The Nausea [2] was 3 (25.0) n (%), the Pyrexia [2] was 1 (8.3) n (%) and the Rash [2] was 2 (16.7) n (%). The Stomatitis [2] was 0 (0.0) n (%), the “Upper respiratory tract infection” value [2] was 0 (0.0) n (%) and the Constipation (Any TEAE, Total (N = 17)) was 6 (35.3) n (%). For the same compound, the Cough (Any TEAE, Total (N = 17)) was 2 (11.8) n (%), the Cystitis (Any TEAE, Total (N = 17)) was 2 (11.8) n (%) and the Diarrhea (Any TEAE, Total (N = 17)) was 3 (17.6) n (%). For the same compound, the Drug eruption (Any TEAE, Total (N = 17)) was 3 (17.6) n (%), the Dry eye (Any TEAE, Total (N = 17)) was 2 (11.8) n (%) and the Dry skin (Any TEAE, Total (N = 17)) was 2 (11.8) n (%). The Fall (Any TEAE, Total (N = 17)) was 2 (11.8) n (%), the Gastritis (Any TEAE, Total (N = 17)) was 2 (11.8) n (%) and the Headache (Any TEAE, Total (N = 17)) was 3 (17.6) n (%). The Hyperkalemia (Any TEAE, Total (N = 17)) was 2 (11.8) n (%), the Hypoalbuminemia (Any TEAE, Total (N = 17)) was 2 (11.8) n (%) and the Insomnia (Any TEAE, Total (N = 17)) was 3 (17.6) n (%). For the same compound, the Myalgia (Any TEAE, Total (N = 17)) was 2 (11.8) n (%), the Nasopharyngitis (Any TEAE, Total (N = 17)) was 3 (17.6) n (%) and the Nausea (Any TEAE, Total (N = 17)) was 4 (23.5) n (%). The Pyrexia (Any TEAE, Total (N = 17)) was 4 (23.5) n (%), the Rash (Any TEAE, Total (N = 17)) was 3 (17.6) n (%) and the Stomatitis (Any TEAE, Total (N = 17)) was 2 (11.8) n (%). For the same compound, the “Upper respiratory tract infection” value (Any TEAE, Total (N = 17)) was 2 (11.8) n (%), the Constipation [3] was 0 (0.0) n (%) and the Cough [3] was 0 (0.0) n (%). For the same compound, the Cystitis [3] was 0 (0.0) n (%), the Diarrhea [3] was 0 (0.0) n (%) and the Drug eruption [3] was 0 (0.0) n (%). The Dry eye [3] was 0 (0.0) n (%), the Dry skin [3] was 0 (0.0) n (%) and the Fall [3] was 0 (0.0) n (%). For the same compound, the Gastritis [3] was 0 (0.0) n (%), the Headache [3] was 0 (0.0) n (%) and the Hyperkalemia [3] was 0 (0.0) n (%). For the same compound, the Hypoalbuminemia [3] was 1 (5.9) n (%), the Insomnia [3] was 0 (0.0) n (%) and the Myalgia [3] was 0 (0.0) n (%). For the same compound, the Nasopharyngitis [3] was 0 (0.0) n (%), the Nausea [3] was 0 (0.0) n (%) and the Pyrexia [3] was 0 (0.0) n (%). For the same compound, the Rash [3] was 0 (0.0) n (%), the Stomatitis [3] was 0 (0.0) n (%) and the “Upper respiratory tract infection” value [3] was 0 (0.0) n (%). For the same compound, the Constipation [4] was 0 (0.0) n (%), the Cough [4] was 0 (0.0) n (%) and the Cystitis [4] was 0 (0.0) n (%). The Diarrhea [4] was 0 (0.0) n (%), the Drug eruption [4] was 0 (0.0) n (%) and the Dry eye [4] was 0 (0.0) n (%). The Dry skin [4] was 0 (0.0) n (%), the Fall [4] was 0 (0.0) n (%) and the Gastritis [4] was 0 (0.0) n (%). The Headache [4] was 0 (0.0) n (%), the Hyperkalemia [4] was 0 (0.0) n (%) and the Hypoalbuminemia [4] was 0 (0.0) n (%). For the same compound, the Insomnia [4] was 0 (0.0) n (%), the Myalgia [4] was 0 (0.0) n (%) and the Nasopharyngitis [4] was 0 (0.0) n (%). For the same compound, the Nausea [4] was 0 (0.0) n (%), the Pyrexia [4] was 0 (0.0) n (%) and the Rash [4] was 0 (0.0) n (%). The Stomatitis [4] was 0 (0.0) n (%), the “Upper respiratory tract infection” value [4] was 0 (0.0) n (%) and the Constipation (Grade ≥3 TEAE, Total (N = 17)) was 0 (0.0) n (%). The Cough (Grade ≥3 TEAE, Total (N = 17)) was 0 (0.0) n (%), the Cystitis (Grade ≥3 TEAE, Total (N = 17)) was 0 (0.0) n (%) and the Diarrhea (Grade ≥3 TEAE, Total (N = 17)) was 0 (0.0) n (%). The Drug eruption (Grade ≥3 TEAE, Total (N = 17)) was 0 (0.0) n (%), the Dry eye (Grade ≥3 TEAE, Total (N = 17)) was 0 (0.0) n (%) and the Dry skin (Grade ≥3 TEAE, Total (N = 17)) was 0 (0.0) n (%). The Fall (Grade ≥3 TEAE, Total (N = 17)) was 0 (0.0) n (%), the Gastritis (Grade ≥3 TEAE, Total (N = 17)) was 0 (0.0) n (%) and the Headache (Grade ≥3 TEAE, Total (N = 17)) was 0 (0.0) n (%). For the same compound, the Hyperkalemia (Grade ≥3 TEAE, Total (N = 17)) was 0 (0.0) n (%), the Hypoalbuminemia (Grade ≥3 TEAE, Total (N = 17)) was 1 (5.9) n (%) and the Insomnia (Grade ≥3 TEAE, Total (N = 17)) was 0 (0.0) n (%). The Myalgia (Grade ≥3 TEAE, Total (N = 17)) was 0 (0.0) n (%), the Nasopharyngitis (Grade ≥3 TEAE, Total (N = 17)) was 0 (0.0) n (%) and the Nausea (Grade ≥3 TEAE, Total (N = 17)) was 0 (0.0) n (%). The Pyrexia (Grade ≥3 TEAE, Total (N = 17)) was 0 (0.0) n (%), the Rash (Grade ≥3 TEAE, Total (N = 17)) was 0 (0.0) n (%) and the Stomatitis (Grade ≥3 TEAE, Total (N = 17)) was 0 (0.0) n (%). For the same compound, the “Upper respiratory tract infection” value (Grade ≥3 TEAE, Total (N = 17)) was 0 (0.0) n (%), the “patients with at least one TEAE” value (N = 17) was “all patients” and the “neutropenia leading to dose interruption” value (additional 2 patients) was 11.8%. The “serious TEAE of pancreatitis” value (dose interruption on both occurrences, responded to corticosteroid) was “One patient experienced a serious TEAE of pancreatitis (grade 2, study days 78 and 145)”, the “TEAEs leading to dose interruption” value (during QD dosing) was 7 patients and the “TEAEs leading to dose reduction” value (during QD dosing) was 2 patients. For the same compound, the “TEAEs leading to dose interruption” value (during QW dosing) was 4 patients, the “TEAEs leading to dose reduction” value (during QW dosing) was 3 patients and the “Varicella zoster infection (AESI)” value (grade 2 in severity, led to parsaclisib discontinuation) was 1 patient. For the same compound, the “TEAEs leading to parsaclisib dose reduction (terms)” value (human, in vivo, oral) was “febrile neutropenia (1 patient), drug eruption and neutropenia in a single patient during the QD period, pancreatitis and pancreatitis relapsing in a single patient, and diarrhea (1 patient) and exfoliative dermatitis (1 patient) during the QW period”, the “febrile neutropenia (AESI), occurrence and severity” value (human, in vivo, oral) was “Two patients experienced grade 3” and the “exfoliative dermatitis (AESI), occurrence and severity” value (human, in vivo, oral, 64 day) was “One patient experienced grade 1”. For the same compound, the “Nonhematologic grade 3 or higher TEAEs occurring in 1 patient each” value (in vivo) was “bile duct stenosis (secondary to pancreatitis), hypoalbuminemia, and lymphoma progression (metastases to meninges [lymphomatous meningitis])”, the “Other serious TEAEs experienced by 1 patient each” value (in vivo) was “diarrhea, enteritis infection, febrile neutropenia, metastases to meninges, and pancreatitis” and the “TEAEs with a fatal outcome” value (in vivo) was “no TEAEs with a fatal outcome”. For the same compound, the “diarrhea (AESI), longest time to resolution” value (individual patients) was 14 days and 18 days and 67 days, the “diarrhea (AESI), time to first onset” value (individual patients) was 70 days and 108 days and 305 days and the “febrile neutropenia (AESI), time to onset” value (individual patients) was 28 days and 63 days. The “febrile neutropenia (AESI), time to resolution” value (individual patients) was 10 days and 2 days, the “rash (AESI), longest time to resolution” value (individual patients) was 5 days and 8 days and 23 days and the “rash (AESI), time to onset of first occurrence” value (individual patients) was 11 days and 50 days and 312 days. The “Varicella zoster infection (AESI), onset” value (one patient) was 33 days, the “Varicella zoster infection (AESI), resolution” value (one patient) was 21 days and the “exfoliative dermatitis (AESI), onset” value (one patient) was 64 days. The “exfoliative dermatitis (AESI), resolution” value (one patient) was 36 days and the “diarrhea (AESI), severity” value (three patients, none led to discontinuation) was 1 patient with grade 1 and 2 patients with grade 2.
